How the values were obtained:
FLT3 = molecular target: T1, FLT3 (Homo sapiens, UniProt P36888); assay: Assay of FLT3 inhibitory activity in vitro (Promega FLT3 Kinase Enzyme System, ADP-Glo); format: biochemical; settings: 50 μmol/L ATP, 30° C., 120 minutes
T1 construct: purchased Promega
Protocol: The assay was carried out in duplicate. […] After the reaction was completed, 5 μL of ADP-Glo reagent was added to each well. The system was further reacted at 30° C. for 40 minutes. After the reaction was completed, 10 μL of kinase detection reagent was added to each well and reacted at 30° C. for 30 minutes. The chemiluminescence was then read by the PerkinElmer Envision multi-label analyzer with an integration time of 0.5 seconds.
The original data was converted into an inhibition rate, and the IC50 value can be obtained by four-parameter curve fitting.

FLT3(D835Y) = molecular target: T2, FLT3(D835Y) (Homo sapiens, UniProt P36888, D835Y); format: binding
T2 sequence (P36888 27-993 D835Y): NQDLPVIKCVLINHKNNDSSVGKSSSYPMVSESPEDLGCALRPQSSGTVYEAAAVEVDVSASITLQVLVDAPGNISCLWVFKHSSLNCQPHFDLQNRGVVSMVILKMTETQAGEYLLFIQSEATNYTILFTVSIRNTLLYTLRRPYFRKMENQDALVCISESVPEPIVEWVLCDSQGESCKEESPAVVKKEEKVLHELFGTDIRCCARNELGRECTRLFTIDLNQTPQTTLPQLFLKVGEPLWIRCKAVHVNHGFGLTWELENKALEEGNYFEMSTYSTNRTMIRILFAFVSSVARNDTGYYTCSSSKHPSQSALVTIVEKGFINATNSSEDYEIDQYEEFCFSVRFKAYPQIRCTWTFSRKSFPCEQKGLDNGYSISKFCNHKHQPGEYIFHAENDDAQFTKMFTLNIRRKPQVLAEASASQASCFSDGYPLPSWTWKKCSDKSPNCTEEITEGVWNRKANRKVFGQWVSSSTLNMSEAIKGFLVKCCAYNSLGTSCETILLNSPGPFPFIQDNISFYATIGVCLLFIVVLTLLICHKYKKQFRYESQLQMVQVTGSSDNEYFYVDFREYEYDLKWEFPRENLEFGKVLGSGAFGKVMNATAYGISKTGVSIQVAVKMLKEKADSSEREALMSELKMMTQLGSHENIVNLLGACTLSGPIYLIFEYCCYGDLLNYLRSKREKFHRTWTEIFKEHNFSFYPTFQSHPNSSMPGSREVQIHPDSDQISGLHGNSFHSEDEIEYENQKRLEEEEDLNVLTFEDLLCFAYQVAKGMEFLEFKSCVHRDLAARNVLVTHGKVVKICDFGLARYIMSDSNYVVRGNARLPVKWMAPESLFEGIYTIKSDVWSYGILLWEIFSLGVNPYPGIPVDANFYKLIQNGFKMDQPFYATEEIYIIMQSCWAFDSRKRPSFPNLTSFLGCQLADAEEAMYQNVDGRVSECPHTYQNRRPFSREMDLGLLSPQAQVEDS
Protocol: The assay was carried out using KINOMEscan™ technology. The assay compounds were stored in 100% DMSO. The assay was carried out by means of 3-fold dilution and 11-point fitting. All compounds used for Kd determination were dispersed by ultrasound, then directly diluted and tested. All reactions were carried out in a 384-well polypropylene plate. Each portion has a final volume of 0.02 ml. The plate was incubated with shaking at room temperature for 1 hour, and then processed. The kinase concentration in the eluent was finally determined by qPCR method. Kd was obtained by fitting.

[1] = In vivo pharmacokinetic assay in mice; set-up: species or system CD-1 male mice
Protocol: CD-1 male mice aged 7 to 10 weeks were selected. The doses for intravenous and oral administration were 1 mg/kg and 2.5 mg/kg, respectively. The mice were fasted for at least 12 hours before the administration, and resumed feeding 4 hours after the administration. The mice had free access to water throughout the assay period.
On the day of the assay, the animals in the intravenous group were administrated the corresponding compound through a single injection in the tail vein at an administration volume of 5 mL/kg; the oral group were administrated the corresponding compound through a single intragastric gavage at an administration volume of 10 mL/kg. The animals were weighed before administration, and the administration volume was calculated based on the body weight. The time for collecting samples was: 0.083 (the injection group), 0.25, 0.5, 1, 2, 4, 8, 24 h. About 30 μL of whole blood was collected from the saphenous vein at each time point to prepare plasma for concentration determination by high-performance liquid chromatography-tandem mass spectrometry (LC-MS/MS). All animals were euthanized by CO2 anesthesia after collecting the PK samples at the last time point. The plasma concentrations were processed by non-compartmental model of WinNonlin™ Version 6.3 (Pharsight, Mountain View, Calif.) pharmacokinetic software, and the pharmacokinetic parameters were calculated by the linear logarithm trapezoidal method.

[2] = Oral administration (2.5 mg/kg)

Work on `CCc1nc(C(N)=O)c(Nc2ccc(N3CCC4(CCN(C)CC4)CC3)c(C)c2)nc1NC1CCOCC1.O=C(O)C(F)(F)F` yielded an IC50 (FLT3) of 0.42 nM, a Kd (FLT3(D835Y)) of 1.4 nM and an AUC0-last ([1]; Injection (1 mg/kg)) of 604 nm·h. For the same compound, the Cl ([1]; Injection (1 mg/kg)) was 48.5 mL/min/kg, the T1/2 ([1]; Injection (1 mg/kg)) was 2.40 h and the Vdss ([1]; Injection (1 mg/kg)) was 8.63 L/kg. It also gave a Cmax [1, 2] of 60.5 nM, a F% [1, 2] of 37.3% and a T1/2 [1, 2] of 4.41 h. For the same compound, the Tmax [1, 2] was 4.00 h.

From patent US20230141887A1, “CRYSTAL FORM OF DIAZASPIROPYRAN COMPOUND” (MEDSHINE DISCOVERY INC., priority 2020, published 2023)
